Measured values as given in publication PMC12458683, “Water-Based Pharmacophore Modeling in Kinase Inhibitor Design: A Case Study on Fyn and Lyn Protein Kinases” (Journal of Chemical Information and Modeling, 2025).

Columns and labels:
Lyn (h) = target: T1, Lyn (h) (Homo sapiens, UniProt P07948); assay: radiometric kinase assay ([gamma-33P]-ATP, filter binding), 9-point dilution; type: biochemical
T1 construct: Eurofins KinaseProfiler enzyme
Excerpt: radiometric kinase assay ([gamma-33P]-ATP, filter binding), 9-point dilution on Lyn (h)

Fyn (h) = target: T2, Fyn (h) (Homo sapiens, UniProt P06241); assay: as above; type: biochemical
T2 construct: Eurofins KinaseProfiler enzyme
Excerpt: radiometric kinase assay ([gamma-33P]-ATP, filter binding), 9-point dilution on Fyn (h)

T1 sequence (P07948 2-512): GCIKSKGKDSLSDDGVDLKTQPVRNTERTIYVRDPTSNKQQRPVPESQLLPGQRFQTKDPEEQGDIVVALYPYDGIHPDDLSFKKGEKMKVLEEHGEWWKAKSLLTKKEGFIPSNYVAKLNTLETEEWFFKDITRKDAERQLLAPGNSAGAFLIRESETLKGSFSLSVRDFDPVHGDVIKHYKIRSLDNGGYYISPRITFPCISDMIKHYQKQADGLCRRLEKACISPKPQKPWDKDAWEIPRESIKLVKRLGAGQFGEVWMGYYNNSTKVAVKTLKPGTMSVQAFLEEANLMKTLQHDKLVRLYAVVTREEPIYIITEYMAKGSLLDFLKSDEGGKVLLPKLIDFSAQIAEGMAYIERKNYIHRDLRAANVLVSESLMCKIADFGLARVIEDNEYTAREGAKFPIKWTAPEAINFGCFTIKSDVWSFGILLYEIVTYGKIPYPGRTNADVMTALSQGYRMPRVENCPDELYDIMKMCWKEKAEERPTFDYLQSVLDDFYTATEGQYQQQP
T2 sequence (P06241 2-537): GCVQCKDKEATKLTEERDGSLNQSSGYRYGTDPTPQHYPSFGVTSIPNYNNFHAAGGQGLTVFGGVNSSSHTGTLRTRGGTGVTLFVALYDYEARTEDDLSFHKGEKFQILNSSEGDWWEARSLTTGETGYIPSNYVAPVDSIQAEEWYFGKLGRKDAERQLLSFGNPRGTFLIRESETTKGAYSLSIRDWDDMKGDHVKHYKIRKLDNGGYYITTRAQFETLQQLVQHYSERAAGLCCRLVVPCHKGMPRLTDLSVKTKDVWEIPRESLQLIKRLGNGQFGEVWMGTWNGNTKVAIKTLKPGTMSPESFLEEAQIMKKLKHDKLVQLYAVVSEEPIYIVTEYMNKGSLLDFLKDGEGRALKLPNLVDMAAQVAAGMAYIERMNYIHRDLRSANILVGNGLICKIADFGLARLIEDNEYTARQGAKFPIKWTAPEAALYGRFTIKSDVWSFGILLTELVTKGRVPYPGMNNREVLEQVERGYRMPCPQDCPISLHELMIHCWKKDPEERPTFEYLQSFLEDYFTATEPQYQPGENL

IC50 (Lyn (h)): 4.39 µM
IC50 (Fyn (h)): 8.66 µM
Compound: COc1cc(O)c2c(=O)c(-c3ccc(O[C@@H]4O[C@H](CO)[C@@H](O)[C@H](O)[C@H]4O)cc3)coc2c1 [compound 1]
